From US8871946B2, “Benzimidazole-4-carboxamide derivatives, their preparation methods, pharmaceutical compositions and their uses” (Zhejiang Medicine Co., Ltd. Xinchang Pharmaceutical Factory, priority 2009, dated 2014)
Values after ≈ are worked out from the molar mass of the structure shown.

system: coxsackie B3 viruses; assay: Measures of anti-coxsackie B3 viruses activity of the compounds in Vero cells; assay type: cell-based; details: half inhibitory concentration for viruses
From the text: Measures of Anti-Coxsackie B3 Viruses Activity of the Compounds The products are applied for measures of antivirus properties of Vero cells. Refer to the results of Table 3: datum of anti-coxsackie B3 viruses activities of some compounds. […] IC50 indicates half inhibitory concentration for viruses. RBV indicates triazole nucleoside, is also called ribavirin, virazole.

Row | Molecule | IC50 [µg/mL]
1 | 2-(2-N-methyl-4-N- methylpiperazinyl)-1H- benzimidazole-4-(N-o- fluorophenyl)amide | 8.9
2 | O=C(Nc1ccc(O)cc1)c1cccc2[nH]c(-c3ccc(O)c(O)c3O)nc12 [2-(2,3,4-trihydroxyphenyl)-1H-benzimidazole-4-(N-p-hydroxyphenyl)amide] | 11.2 (≈ 29.7 µM)
3 | CN1CCN(C)C(c2nc3c(C(=O)Nc4ccc(N)cc4)cccc3[nH]2)C1 (stereo not shown) [2-(2-N-methyl-4-N-methylpiperazinyl)-1H-benzimidazole-4-(N-p-aminophenyl)amide] | 3.5 (≈ 9.6 µM)
4 | O=C(Nc1ccccc1F)c1cccc2[nH]c(-c3cnc(-c4ccccc4)nc3)nc12 [2-(2-phenyl-5-pyrimidinyl)-1H-benzimidazole-4-(N-o-fluorophenyl)amide] | 12.6 (≈ 30.8 µM)
5 | O=C(Nc1ccccc1O)c1cccc2[nH]c(-c3cnc(-c4ccccc4)nc3)nc12 [2-(2-phenyl-5-pyrimidinyl)-1H-benzimidazole-4-(N-o-hydroxyphenyl)amide] | 13.2 (≈ 32.4 µM)
6 | Nc1ccc(NC(=O)c2cccc3[nH]c(-c4cnc(-c5ccccc5)nc4)nc23)cc1 [2-(2-phenyl-5-pyrimidinyl)-1H-benzimidazole-4-(N-p-aminophenyl)amide] | 15.2 (≈ 37.4 µM)
7 | O=C(Nc1ccccc1O)c1cccc2[nH]c(-c3cnccn3)nc12 [2-(2-pyrazinyl)-1H -benzimidazole-4-(N-o-hydroxyphenyl)amide] | 3.5 (≈ 10.6 µM)
8 | O=C(Nc1ccccc1F)c1cccc2[nH]c(-c3cnccn3)nc12 [2-(2-pyrazinyl)-1H-benzimidazole-4-(N-o-fluorophenyl)amide] | 6.5 (≈ 19.5 µM)
9 | Nc1ccc(NC(=O)c2cccc3[nH]c(-c4cnccn4)nc23)cc1 [2-(2-pyrazinyl)-1H-benzimidazole-4-(N-p-aminophenyl)amide] | 4.2 (≈ 12.7 µM)
10 | CC(NC(=O)c1cccc2[nH]c(-c3ccccn3)nc12)C(O)c1ccc(Cl)cc1 (stereo not shown) [2-(2-pyridyl)-1H-benzimidazole-4-[N-(1-methyl-2-p-chlorophenylhydroxyethyl)]amide] | 4.115 (≈ 10.1 µM)
11 | O=C(Nc1ccccc1F)c1cccc2[nH]c(-c3ncccn3)nc12 [2-(2-pyrimidinyl)-1H-benzimidazole-4-(N-o-fluorophenyl)amide] | 8.8 (≈ 26.4 µM)
12 | O=C(Nc1ccccc1O)c1cccc2[nH]c(-c3ncccn3)nc12 [2-(2-pyrimidinyl)-1H-benzimidazole-4-(N-o-hydroxyphenyl)amide] | 7.8 (≈ 23.5 µM)
13 | Nc1ccc(NC(=O)c2cccc3[nH]c(-c4ncccn4)nc23)cc1 [2-(2-pyrimidinyl)-1H-benzimidazole-4-(N-p-aminophenyl)amide] | 9.8 (≈ 29.7 µM)
14 | O=C(Nc1ccccc1F)c1cccc2[nH]c(-c3ccc[nH]3)nc12 [2-(2-pyrrolyl)-1H-benzimidazole-4-(N-o-fluorophenyl)amide] | 9.2 (≈ 28.7 µM)
15 | O=C(Nc1ccccc1F)c1cccc2[nH]c(-c3ccc4ccccc4n3)nc12 [2-(2-quinolinyl)-1H-benzimidazole-4-(N-o-fluorophenyl)amide] | 15.3 (≈ 40 µM)
16 | CC(NC(=O)c1cccc2[nH]c(-c3cccs3)nc12)C(O)c1ccc(Cl)cc1 (stereo not shown) [2-(2-thienyl)-1H-benzimidazole-4-[N-(1-methyl-2-p-chlorophenylhydroxyethyl)]amide] | 5.30 (≈ 12.9 µM)
17 | Cc1cc(C)c(-c2nc3c(C(=O)Nc4ccccc4O)cccc3[nH]2)[nH]1 [2-(3,5-dimethyl-2-pyrrolyl)-1H-benzimidazole-4-(N-o-hydroxyphenyl)amide] | 10.2 (≈ 29.4 µM)
18 | Nc1ccc(NC(=O)c2cccc3[nH]c(-c4c[nH]c5ccccc45)nc23)cc1 [2-(3-indolyl)-1H-benzimidazole-4-(N-p-aminophenyl)amide] | 10.8 (≈ 29.4 µM)
19 | O=C(Nc1ccccc1F)c1cccc2[nH]c(-c3cccnn3)nc12 [2-(3-pyridazinyl)-1H-benzimidazole-4-(N-o-fluorophenyl)amide] | 12.3 (≈ 36.9 µM)
20 | O=C(Nc1ccccc1O)c1cccc2[nH]c(-c3cccnn3)nc12 [2-(3-pyridazinyl)-1H-benzimidazole-4-(N-o-hydroxyphenyl)amide] | 15.2 (≈ 45.9 µM)
21 | Nc1ccc(NC(=O)c2cccc3[nH]c(-c4cccnn4)nc23)cc1 [2-(3-pyridazinyl)-1H-benzimidazole-4-(N-p-aminophenyl)amide] | 10.2 (≈ 30.9 µM)
22 | CC(NC(=O)c1cccc2[nH]c(-c3cccnc3)nc12)C(O)c1ccc(Cl)cc1 (stereo not shown) [2-(3-pyridyl)-1H-benzimidazole-4-[N-(1-methyl-2-p-chlorophenylhydroxyethyl)]amide] | 2.37 (≈ 5.82 µM)
23 | Nc1ncnc(Cl)c1-c1nc2c(C(=O)Nc3ccccc3F)cccc2[nH]1 [2-(4-amino-6-chloro-5-pyrimidinyl)-1H-benzimidazole-4-(N-o-fluorophenyl)amide] | 11.3 (≈ 29.5 µM)

Row | Molecule | IC50 [µg/mL]
24 | Nc1ncnc(Cl)c1-c1nc2c(C(=O)Nc3ccccc3O)cccc2[nH]1 [2-(4-amino-6-chloro-5-pyrimidinyl)-1H-benzimidazole-4-(N-o-hydroxyphenyl)amide] | 12.3 (≈ 32.3 µM)
25 | Nc1ccc(NC(=O)c2cccc3[nH]c(-c4c(N)ncnc4Cl)nc23)cc1 [2-(4-amino-6-chloro-5-pyrimidinyl)-1H-benzimidazole-4-(N-p-aminophenyl)amide] | 14.1 (≈ 37.1 µM)
26 | CN(C)c1ccnc(-c2nc3c(C(=O)Nc4ccc(N)cc4)cccc3[nH]2)c1 [2-(4-dimethylaminopyridyl)-1H-benzimidazole-4-(N-p-aminophenyl)amide] | 10.2 (≈ 27.4 µM)
27 | COc1ccnc(-c2nc3c(C(=O)Nc4ccccc4O)cccc3[nH]2)c1 [2-(4-methoxypyridyl)-1H-benzimidazole-4-(N-o-hydroxyphenyl)amide] | 16.2 (≈ 45 µM)
28 | COc1ccnc(-c2nc3c(C(=O)Nc4ccc(N)cc4)cccc3[nH]2)c1 [2-(4-methoxypyridyl)-1H-benzimidazole-4-(N-p-aminophenyl)amide] | 13.4 (≈ 37.3 µM)
29 | Cc1nc(-c2nc3c(C(=O)Nc4ccccc4F)cccc3[nH]2)sc1N [2-(4-methyl-5-aminothiazolyl)-1H-benzimidazole-4-(N-o-fluorophenyl)amide] | 10.2 (≈ 27.8 µM)
30 | Cc1nc(-c2nc3c(C(=O)Nc4ccc(N)cc4)cccc3[nH]2)sc1N [2-(4-methyl-5-aminothiazolyl)-1H-benzimidazole-4-(N-p-aminophenyl)amide] | 9.8 (≈ 26.9 µM)
31 | Nc1ccc(-c2nc3c(C(=O)Nc4ccccc4F)cccc3[nH]2)s1 [2-(5-amino-2-thienyl)-1H-benzimidazole-4-(N-o-fluorophenyl)amide] | 3.5 (≈ 9.93 µM)
32 | Cc1ccccc1NC(=O)c1cccc2[nH]c(-c3ccc(N)s3)nc12 [2-(5-amino-2-thienyl)-1H-benzimidazole-4-(N-o-methylphenyl)amide] | 8.7 (≈ 25 µM)
33 | Nc1ccc(-c2nc3c(C(=O)Nc4ccc(O)cc4)cccc3[nH]2)s1 [2-(5-amino-2-thienyl)-1H-benzimidazole-4-(N-p-hydroxyphenyl)amide] | 6.5 (≈ 18.6 µM)
34 | Cc1ccc(-c2nc3c(C(=O)Nc4ccccc4O)cccc3[nH]2)s1 [2-(5-methy-2-thienyl)-1H-benzimidazole-4-(N-o-hydroxyphenyl)amide] | 18.5 (≈ 52.9 µM)
35 | CC(NC(=O)c1cccc2[nH]c(-c3ccc([N+](=O)[O-])s3)nc12)C(O)c1ccc(Cl)cc1 (stereo not shown) [2-(5-nitro-2-thienyl)-1H-benzimidazole-4-(N-(1-methyl-2-p-chlorophenylhydroxyethyl))-amide] | 7.12 (≈ 15.6 µM)
36 | O=C(Nc1ccccc1F)c1cccc2[nH]c(-c3ccc([N+](=O)[O-])s3)nc12 [2-(5-nitro-2-thienyl)-1H-benzimidazole-4-(N-(2-fluorophenyl))-amide] | >9.25
37 | Cn1cccc1-c1nc2c(C(=O)Nc3ccccc3F)cccc2[nH]1 [2-(N-methyl-2-pyrrolyl)-1H-benzimidazole-4-(N-o-fluorophenyl)amide] | 13.2 (≈ 39.5 µM)
38 | O=C(Nc1ccccc1F)c1cccc2[nH]c(N3CCNCC3)nc12 [2-N-piperazinyl-1H-benzimidazole-4-(N-o-fluorophenyl)amide] | 4.8 (≈ 14.1 µM)
39 | Nc1ccc(NC(=O)c2cccc3[nH]c(N4CCNCC4)nc23)cc1 [2-N-piperazinyl-1H-benzimidazole-4-(N-p-aminophenyl)amide] | 6.3 (≈ 18.7 µM)
40 | O=C(Nc1ccccc1F)c1cccc2[nH]c(-c3cccs3)nc12 [2-thienyl-1H-benzimidazole-4-(N-(2-fluorophenyl)-amide] | 1.06 (≈ 3.14 µM)
41 | Nc1ccc(NC(=O)c2cccc3[nH]c(-c4cncs4)nc23)cc1 [5-thiazolyl-1H-benzimidazole-4-(N-p-aminophenyl)amide] | 13.5 (≈ 40.3 µM)
42 | CN1CCN(C)C(c2nc3c(C(=O)NC(CO)C(O)c4ccc([N+](=O)[O-])cc4)cccc3[nH]2)C1 (stereo not shown) [(L)-2-(2-N-methyl-4-N-methylpiperazinyl)-1H-benzimidazole-4-[N-(1-hydroxymethyl-2-p-nitrophenylhydroxyethyl)]amide] | 9.2 (≈ 19.6 µM)
43 | O=C(NC(CO)C(O)c1ccc([N+](=O)[O-])cc1)c1cccc2[nH]c(-c3cnc(-c4ccccc4)nc3)nc12 (stereo not shown) [(L)-2-(2-phenyl-5-pyrimidinyl)-1H-benzimidazole-4-[N-(1-hydroxymethyl-2-p-nitrophenylhydroxyethyl)]amide] | 12.0 (≈ 23.5 µM)
44 | O=C(NC(CO)C(O)c1ccc([N+](=O)[O-])cc1)c1cccc2[nH]c(C3CCCCN3)nc12 (stereo not shown) [(L)-2-(2-piperidinyl)-1H-benzimidazole-4-[N-(1-hydroxymethyl-2-p-nitrophenylhydroxyethyl)]amide] | 17.2 (≈ 39.1 µM)
45 | O=C(NC(CO)C(O)c1ccc([N+](=O)[O-])cc1)c1cccc2[nH]c(-c3cnccn3)nc12 (stereo not shown) [(L)-2-(2-pyrazinyl)-1H-benzimidazole-4-[N-(1-hydroxymethyl-2-p-nitrophenylhydroxyethyl)]amide] | 2.3 (≈ 5.29 µM)
46 | O=C(NC(CO)C(O)c1ccc([N+](=O)[O-])cc1)c1cccc2[nH]c(-c3ccccn3)nc12 (stereo not shown) [(L)-2-(2-pyridyl)-1H-benzimidazole-4-[N-(1-hydroxymethyl-2-p-nitrophenylhydroxyethyl)]amide] | 1.76 (≈ 4.06 µM)
